{"source": "paper PMC13242511", "about": "“Disrupting Notch signalling by a small molecule inhibiting dihydroorotate dehydrogenase activity” (Scientific Reports, 2026)", "test_system": "NOTCH1", "assay": "Cell surface biotinylation experiment", "type": "cell-based", "settings": "MDA-MB-231, 2 µM, 24 h; Fig. 8B", "description": "For labelling of membrane proteins, MDA-MB-231 cells were grown to 80% confluency in 6-well cell culture dishes (ThermoFisher, cat #104675) and treated with 2 µM of the indicated compounds for 24 h. Plates were then put on ice for 10 min to slow down cellular metabolism and halt internalisation of membrane proteins. Next, 0.5 mg/ml Sulfo-NHS-Biotin (ThermoFisher, cat #21217) in PBS was added to every second well for 40 min and non-treated wells served as controls. Excess of biotin was removed by washing the plates with PBS followed by incubation with 100 mM glycin (Sigma-Aldrich, cat #G8898) in PBS on ice. Wells were washed twice with ice-cold PBS and next, 500 µl lysis buffer was added to each well (50 mM Tris–HCl pH 7.4, 150 mM NaCl, 1% Triton X-100, (Sigma-Aldrich, cat #X100), 2 mM EDTA, including protease and phosphatase inhibitors, Thermofisher, cat #78442). […] NOTCH1 TMICD western blot band intensity was quantified using Fiji (ImageJ) after background subtraction. Relative enrichment of NOTCH1 protein present at the cell surface was calculated with IP/Input ratio (IP NOTCH1/Input NOTCH1). Input and corresponding IP fraction of a treatment were separated on the same gel and bands were measured while non-saturated. Two independent biological replicates were assessed."}
{"compound": "COc1cccc(CNc2ccc(N3CCCCC3)cc2)c1OCc1cccs1", "note": "[compound C]", "values": [{"measurement": "NOTCH1 surface presentation", "result": "not hindered"}]}
